# Test results taken from patent US8759334B2, “Compounds useful for the treatment of metabolic and inflammatory diseases” (Galapagos NV, priority 2011, dated 2014).
# Columns and labels:
# [1] = biological target: T1, GPR43 (Homo sapiens, UniProt O15552); test: Calcium mobilization assay without probenecid; type: cell-based; details: GPR43 stably expressing cells, triggered with sodium acetate at EC80, read-out: GPR43 assay without probenicid IC50
# T1 construct: expressed in transfected cells
# T1 sequence (O15552 1-330): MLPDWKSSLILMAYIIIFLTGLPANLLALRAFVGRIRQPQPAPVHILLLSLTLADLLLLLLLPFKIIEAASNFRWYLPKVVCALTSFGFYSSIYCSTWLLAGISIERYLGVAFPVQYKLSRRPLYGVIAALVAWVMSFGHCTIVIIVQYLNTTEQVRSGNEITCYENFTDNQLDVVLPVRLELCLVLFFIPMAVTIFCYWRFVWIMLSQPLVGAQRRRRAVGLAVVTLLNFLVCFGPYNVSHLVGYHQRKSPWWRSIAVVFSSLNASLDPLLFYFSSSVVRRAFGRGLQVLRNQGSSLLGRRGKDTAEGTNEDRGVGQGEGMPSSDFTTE
# Experimental: The following assay can be used for determination of GPR43 activation. The assay measures intracellular calcium release induced by activation of GPR43. On day 1, GPR43 stably expressing cells were detached with mild trypsinization (Trypsin, 0.25% with EDTA 4Na, 5× diluted in PBS) centrifuged at 1000 rpm for 5 min and resuspended at 6.000 cells/25 μL medium (DMEM supplemented with 10% FBS, 10 μg/mL puromycin and 1% Pen/Strep). The cells were distributed in poly-D-lysine coated 384 well plates (black with clear bottom, 25 μL/well) and incubated overnight at 37° C. 10% CO2. On day 2, 25 μL of a fluorescent Ca^2+ indicator (Calcium 4 assay; Molecular Devices) was added on top of the cells and incubated for 2 h at 37° C. Subsequently, compounds at increasing concentration (10 μL/well) were added to the plate and incubated for 15 min at 37° C. Finally the cells were triggered with sodium acetate at EC80 concentration (concentration which gives 80% of the activity of the GPR43) and the Ca-flux was measured simultaneously to the trigger injection on a fluorescence plate reader (FlexStation3), this measures the antagonist activity of the compounds. To measure agonist activity of the compounds, compound was added to the well and the Ca-flux was measured simultaneously to the injection of compound.
# [2] = biological target: T1, GPR43; test: Calcium mobilization assay with probenecid; type: cell-based; details: GPR43 stably expressing cells; triggered with sodium acetate at EC80; 2.5 mM probenecid; read-out: GPR43 assay with probenicid IC50
# Method in brief: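 Cells stably expressing GPR43 plated overnight at 37 °C, then loaded 2 h with Calcium 4 dye plus 2.5 mM probenecid. […]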
Compound,IC50 [1] [nM],IC50 [2] [nM]
"CC1(C(=O)NCc2ccc(Cl)cc2)CCN1C(=O)Cc1ccc(Cl)cc1Cl (stereo not drawn) [Compound 1, 1-[2-(2,4-Dichloro-phenyl)-acetyl]-2-methyl-azetidine-2-carboxylic acid 4-chloro-benzylamide]",101 to 500,
"Cc1cc(C)cc(CC(=O)N2CCC2(C)C(=O)N(C)Cc2ccc(Cl)cc2)c1 (stereo not drawn) [Compound 3, 1-[2-(3,5-Dimethyl-phenyl)-acetyl]-2-methyl-azetidine-2-carboxylic acid (4-chloro-benzyl)-methyl-amide]",> 1000,
"CN(Cc1ccc(Cl)cc1)C(=O)C1(C)CCN1C(=O)Cc1cccc(I)c1 (stereo not drawn) [Compound 8, 1-[2-(3-iodo-phenyl)-acetyl]-2-methyl-azetidine-2-carboxylic acid (4-chloro-benzyl)-methyl-amide]",501 to 1000,
"CS(=O)(=O)NC(=O)CCCN(Cc1cccc(Cl)c1)C(=O)C1(Cc2ccccc2)CCN1C(=O)c1csc2ccccc12 (stereo not drawn) [Compound 230, 1-(benzo[b]thiophene-3-carbonyl)-2-benzyl-N-(3-chlorobenzyl)-N-(4-(methylsulfonamido)-4-oxobutyl)azetidine-2-carboxamide]",,101 to 500
"C[C@@H](c1cccc(Cl)c1)N(CCCC(=O)NS(C)(=O)=O)C(=O)[C@@]1(C)CCN1C(=O)c1csc2ccccc12 [Compound 231, (R)-1-(benzo[b]thiophene-3-carbonyl)-N-((S)-1-(3-chlorophenyl)ethyl)-2-methyl-N-(4-(methylsulfonamido)-4-oxobutyl)azetidine-2-carboxamide]",,0.01 to 100
"CCCC1(C(=O)N(CCCC(=O)NS(C)(=O)=O)Cc2cccc(Cl)c2)CCN1C(=O)c1csc2ccccc12 (stereo not drawn) [Compound 232, 1-(benzo[b]thiophene-3-carbonyl)-N-(3-chlorobenzyl)-N-(4-(methylsulfonamido)-4-oxobutyl)-2-propylazetidine-2-carboxamide]",,101 to 500
"CC(C)C1(C(=O)N(CCCC(=O)NS(C)(=O)=O)Cc2cccc(Cl)c2)CCN1C(=O)c1csc2ccccc12 (stereo not drawn) [Compound 233, 1-(benzo[b]thiophene-3-carbonyl)-N-(3-chlorobenzyl)-2-isopropyl-N-(4-(methylsulfonamido)-4-oxobutyl)azetidine-2-carboxamide]",,101 to 500
"CC1(C(=O)N(CCCC(=O)NS(C)(=O)=O)c2ccc(Cl)cc2)CCN1C(=O)c1csc2ccccc12 (stereo not drawn) [Compound 234, 1-(benzo[b]thiophene-3-carbonyl)-N-(4-chlorophenyl)-2-methyl-N-(4-(methylsulfonamido)-4-oxobutyl)azetidine-2-carboxamide]",,0.01 to 100
"CC1(C(=O)N(CCCC(=O)O)Cc2ccc(Cl)cc2)CCN1C(=O)Oc1ccccc1Br (stereo not drawn) [Compound 235, 4-(1-((2-bromophenoxy)carbonyl)-N-(4-chlorobenzyl)-2-methylazetidine-2-carboxamido)butanoic acid]",,> 1000
"CC1(C(=O)N(CCCC(=O)O)Cc2ccc(Cl)cc2)CCN1C(=O)Oc1cc(C(F)(F)F)ccc1Cl (stereo not drawn) [Compound 236, 4-(1-((2-chloro-5-(trifluoromethyl)phenoxy)carbonyl)-N-(4-chlorobenzyl)-2-methylazetidine-2-carboxamido)butanoic acid]",,> 1000
"CC1(C(=O)N(CCCC(=O)O)Cc2ccc(Cl)cc2)CCN1C(=O)n1ccc2ccccc21 (stereo not drawn) [Compound 237, 4-(N-(4-chlorobenzyl)-1-(1H-indole-1-carbonyl)-2-methylazetidine-2-carboxamido)butanoic acid]",,> 1000
"CC1(C(=O)N(CCCC(=O)O)Cc2ccc(Cl)cc2)CCN1C(=O)Oc1ccc(Cl)cc1Cl (stereo not drawn) [Compound 238, 4-(N-(4-chlorobenzyl)-1-((2,4-dichlorophenoxy)carbonyl)-2-methylazetidine-2-carboxamido)butanoic acid]",,> 1000
"CC1(C(=O)N(CCCC(=O)O)Cc2ccc(Cl)cc2)CCN1C(=O)Oc1ccc(F)cc1Cl (stereo not drawn) [Compound 239, 4-(1-((2-chloro-4-fluorophenoxy)carbonyl)-N-(4-chlorobenzyl)-2-methylazetidine-2-carboxamido)butanoic acid]",,> 1000
"CC1(C(=O)N(CCCC(=O)NS(C)(=O)=O)Cc2ccc(Cl)cc2)CCN1C(=O)c1csc2ccccc12 (stereo not drawn) [Compound 240, 1-(benzo[b]thiophene-3-carbonyl)-N-(4-chlorobenzyl)-2-methyl-N-(4-(methylsulfonamido)-4-oxobutyl)azetidine-2-carboxamide]",,101 to 500
"CS(=O)(=O)NC(=O)CCCN(Cc1cccc(Cl)c1)C(=O)C1(Cc2ccc(F)cc2)CCN1C(=O)c1csc2ccccc12 (stereo not drawn) [Compound 241, 1-(benzo[b]thiophene-3-carbonyl)-N-(3-chlorobenzyl)-2-(4-fluorobenzyl)-N-(4-(methylsulfonamido)-4-oxobutyl)azetidine-2-carboxamide]",,501 to 1000

# Next, values leading:
IC50 [1] [nM],IC50 [2] [nM],Compound
,501 to 1000,"COc1cccc(CC2(C(=O)N(CCCC(=O)NS(C)(=O)=O)Cc3cccc(Cl)c3)CCN2C(=O)c2csc3ccccc23)c1 (stereo not drawn) [Compound 242, 1-(benzo[b]thiophene-3-carbonyl)-N-(3-chlorobenzyl)-2-(3-methoxybenzyl)-N-(4-(methylsulfonamido)-4-oxobutyl)azetidine-2-carboxamide]"
,501 to 1000,"CS(=O)(=O)NC(=O)CCCN(Cc1cccc(Cl)c1)C(=O)C1(Cc2ccccc2F)CCN1C(=O)c1csc2ccccc12 (stereo not drawn) [Compound 243, 1-(benzo[b]thiophene-3-carbonyl)-N-(3-chlorobenzyl)-2-(2-fluorobenzyl)-N-(4-(methylsulfonamido)-4-oxobutyl)azetidine-2-carboxamide]"
,> 1000,"CC[C@]1(C(=O)N(CCCS(N)(=O)=O)[C@@H](C)c2ccc(Cl)cc2)CCN1C(=O)c1csc2ccccc12 [Compound 244, (R)-1-(benzo[b]thiophene-3-carbonyl)-N-((S)-1-(4-chlorophenyl)ethyl)-2-ethyl-N-(3-sulfamoylpropyl)azetidine-2-carboxamide]"
,101 to 500,"CC[C@@]1(C(=O)N(CCCS(N)(=O)=O)[C@@H](C)c2ccc(Cl)cc2)CCN1C(=O)c1csc2ccccc12 [Compound 245, (S)-1-(benzo[b]thiophene-3-carbonyl)-N-((S)-1-(4-chlorophenyl)ethyl)-2-ethyl-N-(3-sulfamoylpropyl)azetidine-2-carboxamide]"
,101 to 500,"CCC1(C(=O)N(CCCS(N)(=O)=O)c2ccc(Cl)cc2)CCN1C(=O)c1csc2ccccc12 (stereo not drawn) [Compound 246, 1-(benzo[b]thiophene-3-carbonyl)-N-(4-chlorophenyl)-2-ethyl-N-(3-sulfamoylpropyl)azetidine-2-carboxamide]"
,> 1000,"COc1ccccc1CC1(C(=O)N(CCCC(=O)O)Cc2cccc(Cl)c2)CCN1C(=O)c1csc2ccccc12 (stereo not drawn) [Compound 247, 4-(1-(benzo[b]thiophene-3-carbonyl)-N-(3-chlorobenzyl)-2-(2-methoxybenzyl)azetidine-2-carboxamido)butanoic acid]"
,101 to 500,"CC1(C(=O)N(CCCC(=O)O)c2cccc(Cl)c2)CCN1C(=O)c1csc2ccccc12 (stereo not drawn) [Compound 248, 4-(1-(benzo[b]thiophene-3-carbonyl)-N-(3-chlorophenyl)-2-methylazetidine-2-carboxamido)butanoic acid]"
,> 1000,"CC1(C(=O)N(CCCC(=O)O)c2ccc(Cl)nc2)CCN1C(=O)c1csc2ccccc12 (stereo not drawn) [Compound 249, 4-(1-(benzo[b]thiophene-3-carbonyl)-N-(6-chloropyridin-3-yl)-2-methylazetidine-2-carboxamido)butanoic acid]"
,501 to 1000,"CC1(C(=O)N(CCCC(=O)O)c2ccc(Cl)cn2)CCN1C(=O)c1csc2ccccc12 (stereo not drawn) [Compound 250, 4-(1-(benzo[b]thiophene-3-carbonyl)-N-(5-chloropyridin-2-yl)-2-methylazetidine-2-carboxamido)butanoic acid]"
,101 to 500,"CC1(C(=O)N(CCCC(=O)O)c2cccc(C(F)(F)F)c2)CCN1C(=O)c1csc2ccccc12 (stereo not drawn) [Compound 251, 4-(1-(benzo[b]thiophene-3-carbonyl)-2-methyl-N-(3-(trifluoromethyl)phenyl)azetidine-2-carboxamido)butanoic acid]"
,501 to 1000,"CC1(C(=O)N(CCCC(=O)O)c2cc(Cl)ccn2)CCN1C(=O)c1csc2ccccc12 (stereo not drawn) [Compound 252, 4-(1-(benzo[b]thiophene-3-carbonyl)-N-(4-chloropyridin-2-yl)-2-methylazetidine-2-carboxamido)butanoic acid]"
,> 1000,"CC1(C(=O)N(CCCC(=O)O)c2ccccn2)CCN1C(=O)c1csc2ccccc12 (stereo not drawn) [Compound 253, 4-(1-(benzo[b]thiophene-3-carbonyl)-2-methyl-N-(pyridin-2-yl)azetidine-2-carboxamido)butanoic acid]"
